Values quoted from earlier work, collected in patent US5891465A, “Delivery of biologically active material in a liposomal formulation for administration into the mouth” (BioZone Laboratories, Inc., priority 1996, dated 1999).

Legend:
[1] = tablet for absorption through the buccal mucosa
[2] = tablets under the tongue

| Structure (SMILES) | androgenic activity relative to oral tablets [1] | onset [2] |
| --- | --- | --- |
| C[C@]12CCC(=O)C=C1CC[C@@H]1[C@@H]2CC[C@@]2(C)[C@H]1CC[C@]2(C)O [methyltestosterone] | twice the androgenic activity | – |
| O=[N+]([O-])OCC(CO[N+](=O)[O-])O[N+](=O)[O-] [nitroglycerin] | – | rapid onset |
